Experiments:
Format in all cases: binding
[1] = biological target: T1, kinases (KINOMEscan panel) (Homo sapiens, UniProt O14757); conditions: CHEK1; NEW KINOMEscan
T1 sequence (O14757 1-476): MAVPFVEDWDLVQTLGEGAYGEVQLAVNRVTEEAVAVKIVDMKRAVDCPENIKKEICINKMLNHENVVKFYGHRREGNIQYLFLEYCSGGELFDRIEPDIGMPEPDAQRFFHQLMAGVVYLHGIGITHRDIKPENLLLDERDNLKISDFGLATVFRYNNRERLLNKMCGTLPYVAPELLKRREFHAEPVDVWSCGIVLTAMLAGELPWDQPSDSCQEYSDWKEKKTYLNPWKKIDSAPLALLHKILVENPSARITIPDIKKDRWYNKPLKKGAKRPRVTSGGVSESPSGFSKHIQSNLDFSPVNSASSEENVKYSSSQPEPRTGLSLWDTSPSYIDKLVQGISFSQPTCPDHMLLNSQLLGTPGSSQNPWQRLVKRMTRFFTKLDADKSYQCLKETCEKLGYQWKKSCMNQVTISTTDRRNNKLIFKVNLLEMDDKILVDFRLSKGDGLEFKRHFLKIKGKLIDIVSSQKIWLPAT

[2] = biological target: kinases (KINOMEscan panel) (Homo sapiens, UniProt P00533, L861Q); conditions: kinase EGFR(L861Q); NEW KINOMEscan
Sequence of kinases (KINOMEscan panel) (Homo sapiens, UniProt P00533, L861Q) (P00533 25-1210 L861Q): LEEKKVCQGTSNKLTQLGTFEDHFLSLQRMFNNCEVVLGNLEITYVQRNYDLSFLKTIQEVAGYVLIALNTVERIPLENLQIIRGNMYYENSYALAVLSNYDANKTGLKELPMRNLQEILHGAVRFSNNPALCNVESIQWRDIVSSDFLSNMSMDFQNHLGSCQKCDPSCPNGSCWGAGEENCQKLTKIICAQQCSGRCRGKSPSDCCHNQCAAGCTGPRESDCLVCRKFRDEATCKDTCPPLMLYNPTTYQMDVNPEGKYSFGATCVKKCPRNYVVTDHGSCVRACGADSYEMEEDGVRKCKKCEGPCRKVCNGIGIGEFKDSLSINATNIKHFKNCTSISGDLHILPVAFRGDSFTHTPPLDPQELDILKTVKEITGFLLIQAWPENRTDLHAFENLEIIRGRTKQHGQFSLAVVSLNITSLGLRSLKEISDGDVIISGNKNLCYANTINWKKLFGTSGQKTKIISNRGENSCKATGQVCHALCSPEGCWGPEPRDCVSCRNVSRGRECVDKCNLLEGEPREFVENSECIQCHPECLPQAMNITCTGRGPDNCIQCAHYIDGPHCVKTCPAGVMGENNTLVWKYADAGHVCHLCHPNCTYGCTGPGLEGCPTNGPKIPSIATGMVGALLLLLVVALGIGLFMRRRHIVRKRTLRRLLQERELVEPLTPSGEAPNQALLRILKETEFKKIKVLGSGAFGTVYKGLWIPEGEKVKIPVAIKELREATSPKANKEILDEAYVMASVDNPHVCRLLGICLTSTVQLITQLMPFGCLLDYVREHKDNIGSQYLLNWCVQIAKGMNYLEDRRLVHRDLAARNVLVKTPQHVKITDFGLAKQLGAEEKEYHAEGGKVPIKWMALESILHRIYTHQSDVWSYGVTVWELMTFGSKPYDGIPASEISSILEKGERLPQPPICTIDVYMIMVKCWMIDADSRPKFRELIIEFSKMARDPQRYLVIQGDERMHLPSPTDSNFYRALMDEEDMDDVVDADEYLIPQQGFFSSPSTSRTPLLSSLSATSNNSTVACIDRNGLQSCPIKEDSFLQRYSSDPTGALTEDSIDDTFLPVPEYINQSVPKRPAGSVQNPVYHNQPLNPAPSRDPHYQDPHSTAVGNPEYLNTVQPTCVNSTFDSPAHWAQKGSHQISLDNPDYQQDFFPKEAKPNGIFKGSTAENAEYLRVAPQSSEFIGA

[3] = biological target: T2, kinases (KINOMEscan panel) (Homo sapiens, UniProt P36888); conditions: NEW KINOMEscan; for KINOMEscan FLT3-autoinhibited: kinase FLT3-autoinhibited
T2 sequence (P36888 27-993): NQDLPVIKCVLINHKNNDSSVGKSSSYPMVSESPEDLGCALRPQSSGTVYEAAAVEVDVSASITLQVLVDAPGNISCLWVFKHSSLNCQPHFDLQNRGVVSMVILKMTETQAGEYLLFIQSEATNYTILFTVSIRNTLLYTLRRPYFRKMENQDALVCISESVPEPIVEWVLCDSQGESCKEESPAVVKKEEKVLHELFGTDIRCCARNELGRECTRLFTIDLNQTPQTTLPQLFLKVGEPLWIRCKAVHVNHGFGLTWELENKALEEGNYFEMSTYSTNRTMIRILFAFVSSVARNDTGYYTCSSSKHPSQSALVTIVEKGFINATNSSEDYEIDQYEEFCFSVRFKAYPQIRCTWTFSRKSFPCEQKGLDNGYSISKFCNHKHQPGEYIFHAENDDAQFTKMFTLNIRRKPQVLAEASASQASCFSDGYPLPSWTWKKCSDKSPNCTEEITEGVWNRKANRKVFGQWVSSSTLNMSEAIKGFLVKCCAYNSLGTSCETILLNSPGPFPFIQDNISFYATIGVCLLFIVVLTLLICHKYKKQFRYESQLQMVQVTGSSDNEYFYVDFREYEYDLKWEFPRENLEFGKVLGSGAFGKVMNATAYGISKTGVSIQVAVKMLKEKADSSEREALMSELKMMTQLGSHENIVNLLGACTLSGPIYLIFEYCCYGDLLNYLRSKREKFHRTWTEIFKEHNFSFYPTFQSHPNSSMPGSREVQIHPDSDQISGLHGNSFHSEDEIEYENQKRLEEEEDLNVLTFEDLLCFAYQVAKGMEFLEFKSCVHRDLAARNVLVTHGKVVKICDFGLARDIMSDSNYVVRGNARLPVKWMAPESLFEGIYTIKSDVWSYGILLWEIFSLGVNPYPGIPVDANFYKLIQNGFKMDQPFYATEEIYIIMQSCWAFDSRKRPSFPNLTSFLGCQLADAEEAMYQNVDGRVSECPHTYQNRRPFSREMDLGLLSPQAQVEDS

[4] = biological target: kinases (KINOMEscan panel) (Homo sapiens, UniProt P51957); conditions: kinase NEK4; NEW KINOMEscan
Sequence of kinases (KINOMEscan panel) (Homo sapiens, UniProt P51957) (P51957 whole entry): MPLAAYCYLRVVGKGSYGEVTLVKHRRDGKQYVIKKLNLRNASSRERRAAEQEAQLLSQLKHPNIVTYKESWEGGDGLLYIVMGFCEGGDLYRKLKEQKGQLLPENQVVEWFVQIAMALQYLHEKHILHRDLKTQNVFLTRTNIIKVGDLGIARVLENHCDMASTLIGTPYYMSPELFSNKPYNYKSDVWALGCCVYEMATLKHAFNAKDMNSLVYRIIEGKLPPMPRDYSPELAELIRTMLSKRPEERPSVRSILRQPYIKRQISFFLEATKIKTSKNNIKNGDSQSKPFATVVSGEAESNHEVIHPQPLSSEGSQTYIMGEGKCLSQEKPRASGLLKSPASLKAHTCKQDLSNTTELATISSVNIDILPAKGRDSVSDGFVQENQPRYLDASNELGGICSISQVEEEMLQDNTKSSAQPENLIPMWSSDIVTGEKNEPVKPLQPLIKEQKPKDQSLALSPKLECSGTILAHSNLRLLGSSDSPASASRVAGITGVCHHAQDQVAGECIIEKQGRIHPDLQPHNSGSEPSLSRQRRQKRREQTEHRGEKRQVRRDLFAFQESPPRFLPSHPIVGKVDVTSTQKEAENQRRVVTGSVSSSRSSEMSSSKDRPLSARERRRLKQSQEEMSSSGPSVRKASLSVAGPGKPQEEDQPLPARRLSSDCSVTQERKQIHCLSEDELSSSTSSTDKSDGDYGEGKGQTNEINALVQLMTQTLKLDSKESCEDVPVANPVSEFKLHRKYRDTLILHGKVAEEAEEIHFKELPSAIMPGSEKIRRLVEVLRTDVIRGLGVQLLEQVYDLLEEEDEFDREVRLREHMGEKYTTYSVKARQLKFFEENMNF

[5] = biological target: kinases (KINOMEscan panel) (Homo sapiens, UniProt Q06187); conditions: kinase BTK; NEW KINOMEscan
Sequence of kinases (KINOMEscan panel) (Homo sapiens, UniProt Q06187) (Q06187 whole entry): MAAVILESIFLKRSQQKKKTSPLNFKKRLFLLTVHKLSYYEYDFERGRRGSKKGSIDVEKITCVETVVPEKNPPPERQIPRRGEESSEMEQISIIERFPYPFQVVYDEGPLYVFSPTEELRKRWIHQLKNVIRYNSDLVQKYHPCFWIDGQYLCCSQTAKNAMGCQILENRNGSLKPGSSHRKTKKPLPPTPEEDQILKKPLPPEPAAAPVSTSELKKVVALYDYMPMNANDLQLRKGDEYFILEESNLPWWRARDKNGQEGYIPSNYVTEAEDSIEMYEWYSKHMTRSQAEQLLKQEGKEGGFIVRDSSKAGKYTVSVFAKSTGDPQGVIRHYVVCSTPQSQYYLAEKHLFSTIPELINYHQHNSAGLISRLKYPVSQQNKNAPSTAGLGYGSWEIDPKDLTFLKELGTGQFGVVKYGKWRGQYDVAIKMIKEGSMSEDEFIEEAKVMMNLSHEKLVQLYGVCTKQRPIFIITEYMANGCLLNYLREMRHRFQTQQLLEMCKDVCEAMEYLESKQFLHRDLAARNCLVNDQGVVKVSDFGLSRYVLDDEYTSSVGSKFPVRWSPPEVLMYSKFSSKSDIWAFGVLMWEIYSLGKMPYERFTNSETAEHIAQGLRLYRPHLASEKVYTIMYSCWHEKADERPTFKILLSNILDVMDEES

[6] = biological target: T3, kinases (KINOMEscan panel) (Homo sapiens, UniProt Q13873); conditions: kinase BMPR2; NEW KINOMEscan
T3 sequence (Q13873 27-1038): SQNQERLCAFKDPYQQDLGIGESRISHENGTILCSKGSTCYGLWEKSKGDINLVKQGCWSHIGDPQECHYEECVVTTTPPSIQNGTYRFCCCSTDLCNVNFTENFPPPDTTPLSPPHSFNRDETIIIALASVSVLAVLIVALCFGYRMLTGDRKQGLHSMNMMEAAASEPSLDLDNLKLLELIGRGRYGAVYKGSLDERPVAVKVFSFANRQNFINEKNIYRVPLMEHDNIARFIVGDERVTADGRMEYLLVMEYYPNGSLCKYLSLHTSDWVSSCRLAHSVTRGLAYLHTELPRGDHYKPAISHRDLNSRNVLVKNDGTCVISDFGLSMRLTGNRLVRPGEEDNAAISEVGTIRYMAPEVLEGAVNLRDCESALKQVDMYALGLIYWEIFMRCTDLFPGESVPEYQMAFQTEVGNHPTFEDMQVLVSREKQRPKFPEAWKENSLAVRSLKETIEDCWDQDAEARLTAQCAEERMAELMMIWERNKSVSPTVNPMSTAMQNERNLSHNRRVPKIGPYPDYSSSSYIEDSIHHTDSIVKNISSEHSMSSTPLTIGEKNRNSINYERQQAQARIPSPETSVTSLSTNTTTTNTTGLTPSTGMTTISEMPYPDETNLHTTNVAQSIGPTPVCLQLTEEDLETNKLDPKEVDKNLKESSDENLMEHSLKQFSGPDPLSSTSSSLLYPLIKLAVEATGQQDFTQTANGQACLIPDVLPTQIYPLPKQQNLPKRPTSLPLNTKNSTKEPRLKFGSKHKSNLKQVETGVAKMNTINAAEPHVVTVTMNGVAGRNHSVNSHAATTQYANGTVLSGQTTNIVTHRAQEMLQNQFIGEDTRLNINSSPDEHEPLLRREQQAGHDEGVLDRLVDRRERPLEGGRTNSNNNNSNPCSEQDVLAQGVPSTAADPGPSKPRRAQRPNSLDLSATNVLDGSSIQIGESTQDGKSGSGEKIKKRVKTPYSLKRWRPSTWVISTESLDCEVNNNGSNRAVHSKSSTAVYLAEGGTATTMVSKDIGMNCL

| Compound | KINOMEscan CHEK1 [1] | KINOMEscan EGFR(L861Q) [2] | KINOMEscan FLT3 [3] | KINOMEscan FLT3-autoinhibited [3] | KINOMEscan NEK4 [4] | KINOMEscan BTK [5] | KINOMEscan BMPR2 [6] |
| --- | --- | --- | --- | --- | --- | --- | --- |
| Cc1cccc(-c2nc(Nc3ccc4nn(C)cc4c3)c3ccccc3n2)n1 [NK167] | 2 | 0 | 0 | 0 | 0 | 0 | 0 |
| Cc1cccc(-c2nc(N(C)c3ccc4ncsc4c3)c3ccccc3n2)n1 [NK-161] | 3 | 0 | 0 | 0 | 5 | 10 | 18 |

Reference: paper PMC9851200, “Multiparameter phenotypic screening for endogenous TFEB and TFE3 translocation identifies novel chemical series modulating lysosome function” (Autophagy, 2022)
